For series [1], the system named is IMQ induced psoriatic lesions in BALB/c mice. Briefly: External (cream) use on IMQ induced psoriatic lesions of mice. As to conditions: for erythema, scales and infiltration in the back of the mice / score of erythema, scales, infiltration and total score: cream 0.01% once daily; for erythema, scales and infiltration in the back of the mice: 7 days pretreatment, then 6 days with IMQ; for score of erythema, scales, infiltration and total score: daily score during 6 days of IMQ; for adverse reaction: external ointment once a day; for efficacy compared between groups: external use (ointment/cream). The class given is in vivo. As for the experimental part: (1) 40 SPF female BALB/c mice aged 6-8 weeks were randomly divided into normal control group, model group, PCSK9 inhibitor group and PCSK9 monoclonal antibody group. There were 10 mice for each group. After intraperitoneal injection of pentobarbital sodium 80 mg/kg, the back was shaved with an area of about 2 cm×3 cm. The mice were feed separately for 1 day.
(2) In normal control group, vaseline was applied locally. In model group, small molecule inhibitor group and monoclonal antibody group, 62.5 mg of 5% imiquimod cream was applied on the back every day for 6 consecutive days, and photos were taken and the PASI score was evaluated.
(3) Pretreatment: vaseline was applied on the back skin with mics in normal control group and model group, PCSK9 small molecule inhibitor cream (0.01% concentration) was applied to inhibitor group once daily. And, PCSK9 monoclonal antibody cream (0.01% concentration) was applied to monoclonal antibody group once daily.
(4) After 7 days pretreatment, vaseline was applied on the back skin with mice in normal control group. At the same time, 62.5 mg 5% imiquimod cream was regularly applied daily on the back with mice in model group, small molecule inhibitor group and monoclonal antibody group. PCSK9 small molecule inhibitor cream or PCSK9 monoclonal antibody cream was applied after one hour. For 6 consecutive days, photos were taken and the PASI score was evaluated.

Series [2] concerns IMQ induced psoriasis-like lesions in BALB/c mice. The experiment in a line: Subcutaneous injection in mice with IMQ induced psoriasis-like skin lesions. It is filed as in vivo. Particulars: for adverse reactions / therapeutic effect compared between groups: subcutaneous injection; for erythema, scales and infiltration in the back coating area: subcutaneous on first day (inhibitor 8 mg/kg, antibody 10 mg/kg), after 6 days of IMQ; for score of erythema, scales, infiltration and total score: subcutaneous, daily scoring during 6 days of IMQ. As for the experimental part: The PCSK9 monoclonal antibody used for this example is Evolocumab. 40 SPF female BALB/c mice aged 6-8 weeks were randomly divided into normal control group, model group, PCSK9 small molecule inhibitor group and PCSK9 monoclonal antibody group. There were 10 mice for each group. After intraperitoneal injection of pentobarbital sodium 80 mg/kg, the back was shaved with an area of about 2 cm×3 cm. The mice were feed separately for 1 day.
(1) In normal control group, Vaseline was applied locally. In model group, inhibitor group and monoclonal antibody group, 62.5 mg of 5% imiquimod cream was applied on the back every day for 6 consecutive days, photos were taken and the PASI score was evaluated.
(2) On the first day, normal saline was subcutaneously administrated to normal control group and model group, PCSK9 small molecule inhibitor was subcutaneously administrated (8 mg/kg, Purchased from Selleck Inc.) to inhibitor group, and PCSK9 monoclonal antibody was subcutaneously administrated to monoclonal antibody group (10 mg/kg, Purchased from abcam Inc.)

Series [3] concerns CD4 T cells isolated from peripheral blood of patients with psoriasis, eczema and urticaria. Briefly: Effect of PCSK9 protein on cytokine secretion of peripheral blood CD4+ T cells (ELISA). It is filed as cell-based, human. The procedure:
Materials: peripheral blood of 10 cases of psoriasis, 10 cases of eczema, 10 cases of urticaria, and 10 cases of normal people. ELISA kit was purchased from Raybiotech
After PBMC was isolated by Ficoll-Hypaque from human peripheral blood by density gradient centrifugation, washed with 10 times volume 1×BD beads buffer. Then 50 ul BD IMag TM CD4 beads were added to each […]. The beads were mixed well and incubated at room temperature for 30 minutes. 1 ml 1×BD magnetic bead buffer solution was added, and the cells were transferred to the round bottom tube and placed in the magnetic frame for 8 to 10 minutes. And then the supernatant was discarded and removed the test tube from the magnetic field. After resuspension of cells attached to tube wall with 1 ml 1×BD magnetic bead buffer, the tubes were placed in magnetic field for 2-4 min again. The supernatant was discarded removed it out of the magnetic field, resuspended the cells and placed the tube in the magnetic field for 2-4 min. The cells obtained from the […] can be used in subsequent experiments. BD IMag TM CD4 separation system was purchased from BD Biosciences Company.
The supernatant was collected after cell culture under different conditions. IFN-Gamma represented TH1 type cytokines, IL-4 represented TH2 type cytokines, and IL-17 represented TH17 cytokines. The detection of IFN-Gamma, IL-4, IL-17 was conducted by ELISA.
On the technique in general: An ELISA detects its analyte on a solid surface through an enzyme-linked reagent.

“Also recorded” adds a separate entry of the source.

Regarding `O=C(c1ccc(-n2nnc3cccnc32)cc1)N(c1ncccc1Cl)C1CCCNC1` (stereo not drawn) [PCSK9 small molecule inhibitor], in series [1], the “erythema, scales and infiltration in the back of the mice” value was “only slight erythema, scales and infiltration”; the “score of erythema, scales, infiltration and total score” value (shortened to “score of erythema, scales”) was “significantly lower than that in PCSK9 monoclonal antibody group; also recorded: significantly reduce”; the adverse reaction entry is on record as “no obvious adverse reaction”; the “efficacy compared between groups” value is given as “better than that of PCSK9 monoclonal antibody group; also recorded: significantly better than that of control group”. Besides, in series [2], the adverse reactions result was “no obvious adverse reactions”; the “therapeutic effect compared between groups” value is reported as “better than that of PCSK9 monoclonal antibody group; also recorded: significantly better than that of control group”; the “erythema, scales and infiltration in the back coating area” value was “only mild erythema, scales and infiltration”; the “score of erythema, scales” value was “significantly lower than that of PCSK9 monoclonal antibody group; also recorded: reduce”.
In the case of “PCSK9 protein: PCSK9 protein added to CD4 T cells of patients”, the “secretion of IL-17, IL-2 and IFN-Gamma by CD4 T cells” value in series [3] (CD4 T cells of patients with psoriasis, eczema and urticaria, ELISA of supernatant) is “significantly promote”. Moreover, in series [3] (especially in psoriatic patients), the “expression of NFkb in CD4 T cells” value is on record as “increased”.

B1: PCSK9 monoclonal antibody: PCSK9 monoclonal antibody used for Examples 6 and 7 is Evolocumab; SEQ ID NO:3-6 (antibody, chains of the INN, looked up, V domains shown)
VH: EVQLVQSGAEVKKPGASVKVSCKASGYTLTSYGISWVRQAPGQGLEWMGWVSFYNGNTNYAQKLQGRGTMTTDPSTSTAYMELRSLRSDDTAVYYCARGYGMDVWGQGTTVTVSS
VL: ESALTQPASVSGSPGQSITISCTGTSSDVGGYNSVSWYQQHPGKAPKLMIYEVSNRPSGVSNRFSGSKSGNTASLTISGLQAEDEADYYCNSYTSTSMVFGGGTKLTVL
Consider B1, for which, in series [1], the “erythema, scales and infiltration in the back of the mice” value is “only slight erythema, scales and infiltration”; the “score of erythema, scales” value was “significantly reduce”; the adverse reaction entry was “no obvious adverse reaction”; the “efficacy compared between groups” value is “significantly better than that of control group”. Also, in series [2], the adverse reactions result is on record as “no obvious adverse reactions”; the “therapeutic effect compared between groups” value is on record as “significantly better than that of control group”; the “erythema, scales and infiltration in the back coating area” value was “only mild erythema, scales and infiltration”; the “score of erythema, scales” value is listed as “reduce”.

The record behind these values is patent publication US11214625B2, “Application of PCSK9 inhibitors in the preparation of drugs for the treatment of inflammatory immune diseases” (priority 2015, dated 2022).
